Experiments:
E. coli imp- = E. coli imp- bacterial growth assay (Tier I antimicrobial); format: cell-based; conditions: Escherichia coli, read-out: inhibition in the E. coli procedure
Method: The strain E. coli imp- obtained from Spencer Benson (Sampson, B. A., Misra, R. & Benson, S. A., Genetics, 1989, 122, 491-501, Identification and characterization of a new gene of Escherichia coli K-12 involved in outer membrane permeability) is used in this bacterial growth assay. To initiate the exponential phase of bacterial growth prior to the assay, a sample of bacteria is grown for 6 hours in Mueller Hinton II Broth (BBL 12322) at 37° C. then re-inoculated into fresh media and grown overnight at 37° C. The bacterial cells are collected by centrifugation for 10 minutes at 3200 rpm, diluted and absorbance read at 595 nm. Bacteria diluted in 2× Mueller Hinton II Broth (75 μL) are added to the compound mixtures (75μL) for a total volume of 150 μL. The assays are performed in 96-well microplates with approximately 1×10^4 colony forming units (CFU) per well. The plates are incubated at 37° C. and growth monitored over a 24 hour period by measuring the optical density at 595 nm using a BioRad model 3550 UV microplate reader. The percentage of growth relative to a well containing no compound is determined. Ampicillin and tetracycline antibiotic controls are concurrently tested in each screening assay.
Compounds are assayed in duplicate at a single dose. […]

[1] = test system: S. pyogenes [American Type Culture Collection (ATCC) # 14289]; assay: Streptococcus pyogenes bacterial growth assay (Tier I antimicrobial); format: cell-based; conditions: read-out: inhibition in the S. pyogenes procedure
Method: S. pyogenes [American Type Culture Collection (ATCC) # 14289] is used in this bacterial growth assay. To initiate the exponential phase of bacterial growth prior to the assay, a sample of bacteria is grown for 6 hours in Todd Hewitt Broth (Difco 0492-17-6) at 37° C. then re-inoculated into fresh media and grown overnight at 37° C. The bacterial cells are collected by centrifugation for 10 minutes at 3200 rpm, diluted and absorbance read at 595 nm. Bacteria diluted in 2× Todd-Hewitt Broth (75 μL) are added to the compound mixtures (75 μL) for a total volume of 150 μL. The assays are performed in 96-well microplates with approximately 1×10^4 colony forming units (CFU) per well. The plates are incubated at 37° C. and growth monitored over a 24 hour period by measuring the optical density at 595 nm using a BioRad model 3550 UV microplate reader. The percentage of growth relative to a well containing no test compound or library is determined. Ampicillin and tetracycline antibiotic controls are concurrently tested in each screening assay.
Compounds are assayed in duplicate at a single dose. Compounds which show inhibitory activity are re-tested in duplicate at multiple doses to determine minimum inhibitory concentration (MIC).

Row | Compound | inhibition at 100 µM (E. coli imp-) [%] | inhibition at 100 µM [1] [%]
1 | NC(=O)CN(Cc1cccc(C(F)(F)F)c1)Cc1cccc(CN(CCNCCCO)Cc2cccc(C(F)(F)F)c2)n1 [Example 66] | 87 | 95
2 | N=C(N)NCc1cccc(CN(CCNCCCO)Cc2cccc(C(F)(F)F)c2)n1 [Example 71] |  | 95
